Results reported in patent US20090325863A1, “Somatostatin analogs and IGF-I inhibition for breast cancer prevention” (priority 2008, published 2009).
Entries after “also recorded” stand apart in the source; their conditions may differ. Marks after values point to notes of the source that are not given here. Bridges are numbered along the chain shown (N, C = ends). Where no end group is shown, it is not given here.

Key:
mammary development = experiment: Mammary development of CD female mice (TEB, branch, area in whole mounts); assay type: in vivo
Experimental: The effect of PQ401 and Somatostatin 14 (SS14) on mammary development of CD female mice was determined. FIG. 10 depicts control animals at 21 and 28 days versus 28 day old animals treated with PQ401 for 7 days and 28 day old animals treated with SS14 for 7 days.

[1] = system: mammary hyperplasia induced by hGH and E2; experiment: Mammary hyperplasia model induced by hGH and E2, counts in histological sections; assay type: in vivo, rat; details: for Total# / Mild# / Moderate# / Florid# / DH#: Table 3; for Total#: SOM230 30 mcg/h/kg, Octreotide 30 mcg/hr/kg, Tamoxifen 30 mg/21 day release pellet, GH + E2 control 88.3 ± 6.3; for Mild# / Moderate# / Florid# / DH#: same doses; for Mild#: GH + E2 control 4.4 ± 0.6; for Moderate#: GH + E2 control 5.3 ± 0.6; for Florid#: GH + E2 control 10 ± 0.7; for DH#: GH + E2 control 19.7 ± 1.5; for inhibitory effect on hyperplasia compared with SOM230 alone (in words): hGH+E2 model, 7 days, no dose response comparison
Text: To test whether SOM230, a drug that inhibits IGF-I action on the breast, was effective, we implemented a model of hyperplasia and then determined whether the hyperplasia could be inhibited by SOM230. We administered human growth hormone (600 mcg in alzet pumps) for a week, and gave this together with estradiol (an estrogen). At the end of 7 days florid hyperplasia developed. Mammary hyperplasia was modeled by treating hypophysectomized, oophorectomized female rats with high doses human growth hormone (hGH) (600 μg in Alzet pumps) and follicular phase concentrations of estradiol (E2) administered in silastic capsules for 7 days. In the absence of hGH, these animals would not undergo mammary development. In animals receiving E2 alone, there was virtually no hyperplasia. When hGH was added to E2 there were more glands (42.2±1.4 vs. 71.9±5.4, E2 vs. E2+hGH, respectively). There was no florid hyperplasia with E2 treatment. When hGH was given also, 26.6% of the glands were hyperplastic, with 50% of those being floridly hyperplastic, 7% moderate hyperplasia and 5.9% mild hyperplasia. […] This is shown in histological sections (FIG. 1), graphically (FIG. 2) and in tabular form below (TABLE 1).
Background: Antiestrogens or aromatase inhibitors are used for breast cancer chemoprevention. These treatments cause unpleasant side effects including hot flashes and vaginal dryness. We have previously shown that IGF-I is required to permit estrogen and progesterone action in the mammary gland. […] Menopausal symptoms would not likely to occur with SOM230 since estrogen is not lowered. Material and Methods: We have approached this issue in several ways. 1) We developed a model of hyperplasia in hypophysectomized and oophorectomized female rats. Hyperplasia was induced by treatment with 600 mcg hGH and follicular phase concentrations of estradiol. Hyperplasia was assessed histologically in sections of mammary gland. 2) To assess translatability to humans we assessed cell proliferation and apoptosis in normal human breast from reduction mammoplasties and samples of usual hyperplasia. 3) We also determined availability of SST receptors in samples of atypical ductal hyperplasia and DCIS, and 4) We have begun to determine whether SOM230 will prevent hyperplasia in humans at risk for breast cancer as it does in rats.
The degree of hyperplasia was analyzed in 3 histological sections at different levels in 3 test animals given GH+E2. The different types of hyperplasia were counted. For example, the total mean number of ducts was 88.3. Of those ducts, there were 19.7 or 22.3% of total ducts that were hyperplastic. The breakdown was a mean of 10 ducts with florid hyperplasia (lumen is distended and mostly obliterated by epithelial cells), a mean of 5.3 ducts with moderate hyperplasia (an increase in cell layers to >4 cells thick), and a mean of 4.4 characterized as mild hyperplasia (no more than 4 cell thickness).
There were 4 additional treatment groups and one E2 treated control group.

[2] = system: hGH induced TEB formation; experiment: Hyperplastic terminal endbuds (TEBs) in mammary gland whole mounts, hGH+E2 model; assay type: in vivo, rat; details: hGH+E2, 7 days; reduced from 86.5 (86) TEBs in hGH+E2 control
Text: At the end of 7 days one lumbar mammary gland was removed for whole mount analysis and the other for histological analysis. Hyperplastic TEBs were counted in the whole mounts. […] Representative photomicrographs of the whole mounts are provided in FIG. 5 and suppression by the different treatments is shown graphically in FIG. 6.

[3] = system: pYIRS-1 (phosphorylated IRS-1), product of IGF-I action; experiment: Immunostaining for phosphorylated IRS-1 in mammary gland, hGH+E2 model; assay type: in vivo, rat; details: hGH+E2 treated animals; staining most intense with hGH+E2
Text: FIG. 12 depicts immunostaining for pYIRS-1 (phosphorylated IRS-1) in a representative E2 treated control (upper left), an hGH+E2 treated animal (upper right), an hGH+E2+SOM230 treated animal (lower left) and an hGH+E2+tamoxifen treated animal (lower right). The intensity of staining parallels IGF-I action as phosphorylated IRS-1 is a product of IGF-I action. In this study, staining (brown color) was most intense in response to hGH+E2 and was inhibited by both SOM230 and tamoxifen. […] This reflection of inhibition of IGF-I activity also supports the greater inhibitory effect of SOM230 over that of tamoxifen.

[4] = system: development of breast cancer; details: women with hyperplastic lesions of the breast; cited from earlier work

Somatostatin 14: Somatostatin 14 (SS14) (AGCKNFFWKTFTSC; disulfide 3-14; ends not checked; UniProt P61278 103-116, looked up)
TEB (number) (mammary development; 28 day old CD female mice treated 7 days, PQ401 100/kgbw ip thrice weekly, SS14 15 mcg/hr/Kg Alzet pump, 28d control 18.6 ± 1.5): 18.5 ± 1.5
area % (mammary development; same treatment, 28d control 52.2 ± 2.0, 21d control 23 ± 3.2): 36.3 ± 6.2%

CC/C(=C(\c1ccccc1)c1ccc(OCCN(C)C)cc1)c1ccccc1 [Tamoxifen]
Total# [1]: 74.2 ± 7.7
Mild# [1]: 3.6 ± 0.4
Moderate# [1]: 4.8 ± 0.6
Florid# [1]: 4.5 ± 0.6^e
DH# [1]: 12.4 ± 1.5
inhibitory effect on hyperplasia compared with SOM230 alone (in words) [1]: significantly less effective than SOM230
inhibitory effect on hyperplasia compared with SOM230 alone (in words) ([1]; listed as tamoxifen): significantly lower than SOM230 alone
number of hyperplastic TEBs in whole mounts [2]: 49
intensity of pYIRS-1 immunostaining [3]: inhibited; also recorded: more intense than in the SOM230 treated one
prevention of the development of cancer [4]: about 50%

Octreotide
Total# [1]: 76.3 ± 7.3
Mild# [1]: 4.6 ± 0.8
Moderate# [1]: 5.8 ± 1.0
Florid# [1]: 5.0 ± 0.8^e
DH# [1]: 15.4 ± 2.6
inhibitory effect on hyperplasia compared with SOM230 alone (in words) [1]: significantly lower than SOM230 alone
number of hyperplastic TEBs in whole mounts [2]: 60
